Columns and labels:
Type in all cases: cell-based
[1] = tested on: various pathogens; test: microbe, parasite or virus in culture
Experimental: (§1) The MICs of the individual drugs and LC compound in combinations were determined using the broth microdilution technique as recommended by the CLSI whereby the two anti-microbial agents were added in an equal amount. (e.g.: 50 μL of Colistin: 50 μL of LC compounds). Diluted media containing compounds and antibiotics will be serially diluted 2-fold, and LC compounds and antibiotics alone or in combination will be assayed at fixed synergy concentration. In all cases, the lowest concentration at which no visible growth occurred was be recorded to be the MIC value of individual and combined antibacterial agents. The results were obtained after 24 hours of incubation.
Using the combination of LC100 and colistin, the activity of a broad range of strains was further tested (Table 7).

[2] = tested on: colistin resistant MCR (+) E. Coli strains; test: Synergy study: colistin MIC in the presence of compound; settings: against mcr-1 bacteria
Experimental: as §1

[3] = tested on: colistin resistant MCR (+) E. Coli strains; test: MIC, broth microdilution, compound alone; settings: colistin resistant bacteria; in words
Experimental: MIC experiments of the antimicrobial agents were determined by a modified broth microdilution method in accordance with the Clinical and Laboratory Standards Institute (CLSI) guidelines using 96 well culture plates. In brief, serial dilutions of all plates were prepared at different concentrations (μg). The inoculum suspension was prepared by adding isolated colonies from a 18-20 hours on TSA plate into phosphate buffer (0.31 mM, pH 7.2) or in water for injection (BBraun) and adjusting the suspension to a turbidity equivalent to 0.5 McFarland Standard. Each well contained a final bacterial concentration of approximately 5×10^5 colony forming units (CFU)/mL. The plate was covered and incubated at 35° C. for 24 hours. […] For the microdilution plates, turbidity in wells can be measured at OD600 using TECAN infinite M200Pro. MIC was determined as […] concentration that gives a 99 percent inhibition.

[4] = Escherichia coli, 6083655967 [MCR 1+, E. Coli]
[5] = Escherichia coli, 6093560257 [MCR 1+, E. Coli, NDM-1]
[6] = Escherichia coli, 7023446108 [MCR 1−, E. Coli]
[7] = Escherichia coli, 7103531927 [MCR 1+, E. Coli, KPC+]
[8] = Escherichia coli, 7113636863 [MCR 1+, E. Coli, NDM-1]
[9] = Escherichia coli, E. Coli CRE 11804
[10] = Escherichia coli, E. Coli CRE 17528
[11] = Escherichia coli, E. Coli CRE 17232

| Compound | MIC [1, 4] [µg/mL] | MIC [1, 5] [µg/mL] | MIC [1, 6] [µg/mL] | MIC [1, 7] [µg/mL] | MIC [1, 8] [µg/mL] | MIC [1, 9] [µg/mL] | MIC [1, 10] [µg/mL] | MIC ([1]; KLPN CRE 7955) [µg/mL] | MIC ([1]; KLPN CRE 16260) [µg/mL] | MIC ([1]; KLPN CRE 27025) [µg/mL] | MIC ([1]; KLPN CRE 55301) [µg/mL] | MIC ([1]; PAE DM 4150) [µg/mL] | MIC ([1]; PAE DM 23155) [µg/mL] | MIC ([1]; PAE DM 23257) [µg/mL] | MIC ([1]; PAE DM 23376) [µg/mL] | MIC ([1]; PAE DR 4877) [µg/mL] | MIC ([1]; PAE DU 14476) [µg/mL] | MIC [1, 11] [µg/mL] | MIC ([1]; PAE DR 5790) [µg/mL] | other results |
| --- | --- | --- | --- | --- | --- | --- | --- | --- | --- | --- | --- | --- | --- | --- | --- | --- | --- | --- | --- | --- |
| C[C@@H](O)[C@H]1C(=O)N2C(C(=O)O)=C(S[C@@H]3CN[C@H](CNS(N)(=O)=O)C3)[C@H](C)[C@H]12 [Doripenem] | < 0.0975 | 50 | 0.0975 | 1.56 | 25 | > 25 | 1.56 | > 25 | > 50 | 25 | 1.56 | 6.25 | 0.195 | 0.78 | 0.78 | 0.78 | > 25 | – | – | MIC ([1]; Escherichia coli, 6123520276 [MCR 1+, E. Coli]): < 0.0975 µg/mL; MIC ([1]; Escherichia coli, 7023436560 [MCR 1+, E. Coli]): < 0.0975 µg/mL; MIC ([1]; Escherichia coli, 7023444207 [MCR 1+, E. Coli]): < 0.0975 µg/mL; MIC ([1]; Escherichia coli, 7033607097 [MCR 1−, E. Coli]): < 0.0975 µg/mL; MIC ([1]; PAE DR 5790, ¼ MHB): 12.5 µg/mL |
| C[C@@H](O)[C@H]1C(=O)N2C(C(=O)O)=C(S[C@@H]3CN[C@H](C(=O)Nc4cccc(C(=O)O)c4)C3)[C@H](C)[C@H]12 [Ertapenem] | – | 25 | – | 12.5 | > 50 | 25 | > 25 | > 25 | > 50 | – | > 25 | > 25 | 12.5 | > 25 | > 25 | > 25 | > 25 | 1.56 | > 25 | – |
| CC1(C)C=Cc2c(ccc3c2OCC(c2ccc(OCCCCN(Cc4ccccn4)Cc4ccccn4)cc2OCCCCN(Cc2ccccn2)Cc2ccccn2)C3)O1 (stereo not drawn) [GLA-DPA] | – | – | – | – | – | – | – | – | – | – | – | – | – | – | – | – | – | – | – | concentration at which the compound shows synergy with colistin [2]: 5 µg/mL; synergy with colistin ([2]; in words): restore the sensitivity of E. coli with mcr-1 to colistin; antimicrobial activity when used alone [3]: limited antimicrobial activity |
| COc1c(N2CCNC(C)C2)c(F)cc2c(=O)c(C(=O)O)cn(C3CC3)c12 (stereo not drawn) [Gatifloxacin] | 12.5 | 0.78 | 3.12 | < 0.0975 | 50 | < 0.015 | 25 | 100 | 3.12 | 3.12 | 25 | – | 1.56 | 0.78 | 1.56 | 25 | 25 | 12.5 | 25 | MIC ([1]; ACBA 1003 (CI)): 12.5 µg/mL; MIC ([1]; ACBA 1004 (CI)): 12.5 µg/mL; MIC ([1]; ACBA 1005 (CI)): 6.25 µg/mL; MIC ([1]; ACBA 1006 (CI)): 6.25 µg/mL; MIC ([1]; ACBA 1010 (CI)): < 0.098 µg/mL; MIC ([1]; Escherichia coli, ATCC8739, E. Coli ATCC 8739): 0.024 µg/mL; MIC ([1]; Escherichia coli, ATCC10536, E. Coli ATCC 10536): 0.012 µg/mL; MIC ([1]; Escherichia coli, ATCC25922, E. Coli ATCC 25922): 0.012 µg/mL; MIC ([1]; Escherichia coli, E. Coli CRE 19211): 25 µg/mL; MIC ([1]; Escherichia coli, E. Coli CRE 34685): 0.195 µg/mL; MIC ([1]; KLPN ATCC 4352): < 0.049 µg/mL; MIC ([1]; KLPN ATCC 10031): < 0.049 µg/mL; MIC ([1]; KLPN ATCC 27736): < 0.049 µg/mL; MIC ([1]; KLPN CRE 15588): 25 µg/mL; MIC ([1]; PAE ATCC 9027): 0.78 µg/mL; MIC ([1]; PAE ATCC 27853): 1.56 µg/mL |
